# Assay results: patent US20240025903A1, “Bicyclic Compounds and Uses Thereof for the Treatment of Diseases” (Athira Pharma, Inc., priority 2020, published 2024)
# Read-outs that look alike come from different tables or passages of the source.
# Legend:
# In vivo pharmacokinetics = experiment: In vivo pharmacokinetics; set-up: species or system Sprague-Dawley rats; conditions: both sexes, Sprague-Dawley, rat; for Tmax: plasma; for AUC: dose-corrected plasma AUC; for Cmax: dose-corrected plasma Cmax
# Procedure: Administration of exemplary compounds by selected routes followed by blood collection and compound quantification in plasma was used to determine the pharmacokinetic (PK) profile of the compounds. Compounds were administered to mixed-sex Sprague-Dawley rats of at least 250 grams by dissolving the test compound in DMSO and then diluting the compound into an appropriate vehicle, either saline or saline and poly-ethylene glycol. Dosing was accomplished by either tail vein puncture (IV) or oral gavage (PO), and animals were administered compound according to their weight at 1 mL/kg. At selected intervals following administration (10, 20, 40, 60, 120, and 360 minutes), blood was collected by tail vein blood draw. Whole blood was then processed by centrifugation to produce plasma. Compound content in plasma samples was quantified by LC-MS/MS and compared to an internal standard and standard curves to determine concentration accurately. Plasma concentrations were then averaged for each time point and plotted as a function of time. Area under the curve was calculated by integration of the curve, Cmax was the highest concentration achieved in plasma, and Tmax was determined by the timing of Cmax.
# [1] = In vivo tissue distribution; set-up: species or system Sprague-dawley rats; conditions: rat
# Procedure: The rate of distribution to target tissues is an important feature of therapeutic molecules. Tissue distribution of exemplary compounds was performed in mixed-sex Sprague-dawley rats. Test compounds were delivered via tail vein injection (IV) and tissues were collected at Tmax (10 minutes post administration). Animals were deeply anesthetized with isoflurane and whole blood was collected from the right atrium and processed by centrifugation to produce plasma. Animals were then fully perfused with PBS administered to the left ventricle to prevent blood contamination of tissues.
# Tissues were collected and homogenized, and compound content in the target tissue was quantified by LC-MS/MS. Tissue distribution rates were determined by dividing the tissue concentration of compound by the plasma concentration and multiplying by 100.
# [2] = system: scopolamine-induced spatial memory deficit in rats; experiment: Scopolamine-induced spatial memory deficit in the Morris water maze (compounds 2a and 6a); assay type: in vivo; conditions: rat, scopolamine 3 mg/kg IP, escape latency over 8 days, post-test p-value
# Procedure: Exemplary compounds 2a and 6a were evaluated for their ability to reverse chemically-induced spatial memory deficits in rats in the Morris water maze. The water maze consists of a large round tank (diameter 2.1 m) filled with 26-28° C. water to a depth of −30 cm and the water was clouded with white paint. A round platform (13 cm diameter) was fixed such that it rested 2-3 cm below the surface of the water. High-contrast visual cues were placed around the tank to aid spatial orientation of test animals. Testing consisted of placing an animal into the water facing the tank wall at one of three randomly assigned starting locations and allowing the animal to swim and search for the hidden platform for up to 120 seconds. The time taken for the animal to locate the platform was recorded as the escape latency. Animals were tested 5 times per day with a 30 second rest period between trials. Testing was completed for a total of 8 consecutive days.
# Animals were divided into groups (N=8 per group) depending on treatment. Control animals received only empty vehicle. Scopolamine groups received 3 mg/kg scopolamine dissolved in sterile saline by intraperitoneal (IP) injection 30 minutes prior to testing. Test compound groups received test compound at various concentrations by oral gavage (PO) dissolved in 48% sterile saline, 50% polyethylene glycol (PEG-400), and 2% DMSO 40 minutes prior to testing. Escape latencies were recorded for each animal for 5 trials each day for 8 consecutive days. Changes in escape latency curves were statistically analyzed by 2-way ANOVA with Bonferoni post-test.
# [3] = IV (tail vein), read-out: TMAX IV
# [4] = PO (oral gavage), read-out: TMAX PO
# [5] = IV (tail vein), read-out: AUC IV
# [6] = IV (tail vein), read-out: CMAX IV
# [7] = PO (oral gavage), read-out: AUC PO
# [8] = PO (oral gavage), read-out: CMAX PO
SMILES,Tmax (In vivo pharmacokinetics; [3]),Tmax (In vivo pharmacokinetics; [4]),AUC (In vivo pharmacokinetics; [5]),Cmax (In vivo pharmacokinetics; [6]),AUC (In vivo pharmacokinetics; [7]),Cmax (In vivo pharmacokinetics; [8]),Tissue Distribution (% Plasma exposure at 10 min post IV dose) Brain [1],Tissue Distribution (% Plasma exposure at 10 min post IV dose) Cerebellum [1],Tissue Distribution (% Plasma exposure at 10 min post IV dose) Cortex [1],Tissue Distribution (% Plasma exposure at 10 min post IV dose) Hippocampus [1],Tissue Distribution (% Plasma exposure at 10 min post IV dose) Sciatic Nerve [1],Tissue Distribution (% Plasma exposure at 10 min post IV dose) Muscle [1],Cognitive Improvement ([2]; 1 mg/kg PO),Cognitive Improvement ([2]; 10 mg/kg PO),Cognitive Improvement ([2]; 0.1 mg/kg PO)
CCC(C)CN1CC2N(Cc3ccc(C(F)(F)F)cc3)CCC(=O)N2[C@@H](C)C1=O (stereo partly shown) [Compound 5a],< 30 min,30 to 60 min,100 to 999 ng·h/mL,100 to 999 ng/mL,1 to 100 ng·h/mL,1 to 100 ng/mL,++++ (++++ indicates distribution above 70%),++++ (++++ indicates distribution above 70%),++++ (++++ indicates distribution above 70%),++++ (++++ indicates distribution above 70%),,,,,
CC1C(=O)N(CC2CCC2)CC2N(C(=O)c3ccc(OC(F)F)cc3)CCC(=O)N12 (stereo not shown) [Compound 14],< 30 min,> 60 min,1000 to 3000 ng·h/mL,100 to 999 ng/mL,1000 to 3000 ng·h/mL,100 to 999 ng/mL,++ (++ indicates distribution between 5 and 39%),++ (++ indicates distribution between 5 and 39%),++ (++ indicates distribution between 5 and 39%),++ (++ indicates distribution between 5 and 39%),++ (++ indicates distribution between 5 and 39%),,,,
CC1C(=O)N(CCC2CCC2)CC2N(C(=O)c3ccc(C(F)(F)F)cc3)CCC(=O)N12 (stereo not shown) [Compound 20],< 30 min,> 60 min,1000 to 3000 ng·h/mL,1000 to 3000 ng/mL,1000 to 3000 ng·h/mL,100 to 999 ng/mL,++++ (++++ indicates distribution above 70%),++++ (++++ indicates distribution above 70%),++++ (++++ indicates distribution above 70%),+++ (+++ indicates distribution between 40 and 69%),++++ (++++ indicates distribution above 70%),,,,
CCC(C)CN1CC2N(Cc3ccc(O)nc3)CCC(=O)N2[C@@H](C)C1=O (stereo partly shown) [Compound 7a],< 30 min,30 to 60 min,> 3000 ng·h/mL,> 3000 ng/mL,1 to 100 ng·h/mL,1 to 100 ng/mL,+ (+ indicates distribution between 0.05 and 5%),+ (+ indicates distribution between 0.05 and 5%),+ (+ indicates distribution between 0.05 and 5%),+ (+ indicates distribution between 0.05 and 5%),++++ (++++ indicates distribution above 70%),++ (++ indicates distribution between 5 and 39%),,,
"CCC(C)CN1CC2N(C(=O)c3ccc(C(F)(F)F)c(Cl)c3)CCC(=O)N2C(C)C1=O (stereo not shown) [Compound 12, 1-(3-chloro-4-(trifluoromethyl)benzoyl)-6-methyl-8-(2-methylbutyl)hexahydro-4H-pyrazino[1,2-a]pyrimidine-4,7(6H)-dione]",< 30 min,> 60 min,100 to 999 ng·h/mL,100 to 999 ng/mL,100 to 999 ng·h/mL,1 to 100 ng/mL,++ (++ indicates distribution between 5 and 39%),++ (++ indicates distribution between 5 and 39%),++ (++ indicates distribution between 5 and 39%),++ (++ indicates distribution between 5 and 39%),+++ (+++ indicates distribution between 40 and 69%),,,,
CCC(C)CN1CC2N(Cc3ccc(OC(F)F)cc3)CCC(=O)N2[C@@H](C)C1=O (stereo partly shown) [Compound 6a],< 30 min,30 to 60 min,1000 to 3000 ng·h/mL,1000 to 3000 ng/mL,1 to 100 ng·h/mL,1 to 100 ng/mL,++ (++ indicates distribution between 5 and 39%),++ (++ indicates distribution between 5 and 39%),++ (++ indicates distribution between 5 and 39%),++ (++ indicates distribution between 5 and 39%),++++ (++++ indicates distribution above 70%),++++ (++++ indicates distribution above 70%),− (− indicates post-test p-value above 0.06),++ (++ indicates post-test p-value between 0.05 and 0.01),
C=CCCN1CC2N(C(=O)c3ccc(C(F)(F)F)cc3)CCC(=O)N2C(C)C1=O (stereo not shown) [Compound 22],< 30 min,30 to 60 min,1000 to 3000 ng·h/mL,100 to 999 ng/mL,100 to 999 ng·h/mL,100 to 999 ng/mL,++ (++ indicates distribution between 5 and 39%),++ (++ indicates distribution between 5 and 39%),++ (++ indicates distribution between 5 and 39%),++ (++ indicates distribution between 5 and 39%),+++ (+++ indicates distribution between 40 and 69%),,,,
CCC(C)CN1CC2N(C(=O)c3ccc(OC(F)F)cc3)CCC(=O)N2[C@@H](C)C1=O (stereo partly shown) [Compound 2a],< 30 min,30 to 60 min,1000 to 3000 ng·h/mL,1000 to 3000 ng/mL,100 to 999 ng·h/mL,100 to 999 ng/mL,++ (++ indicates distribution between 5 and 39%),+ (+ indicates distribution between 0.05 and 5%),++ (++ indicates distribution between 5 and 39%),++ (++ indicates distribution between 5 and 39%),++++ (++++ indicates distribution above 70%),++++ (++++ indicates distribution above 70%),+++ (+++ indicates post-test p-value below 0.01),− (− indicates post-test p-value above 0.06),− (− indicates post-test p-value above 0.06)
"CCC(C)CN1CC2N(C(=O)c3ccc(F)cc3)CCC(=O)N2C(C)C1=O (stereo not shown) [Compound 11, 1-(4-fluorobenzoyl)-6-methyl-8-(2-methylbutyl)hexahydro-4H-pyrazino[1,2-a]pyrimidine-4,7(6H)-dione]",< 30 min,< 30 min,1000 to 3000 ng·h/mL,100 to 999 ng/mL,100 to 999 ng·h/mL,100 to 999 ng/mL,++ (++ indicates distribution between 5 and 39%),+ (+ indicates distribution between 0.05 and 5%),+ (+ indicates distribution between 0.05 and 5%),+ (+ indicates distribution between 0.05 and 5%),++ (++ indicates distribution between 5 and 39%),,,,
